Values of other authors as cited in patent US20210106592A1, “METHODS AND COMPOSITIONS FOR THE TREATMENT OF TRAUMATIC BRAIN INJURY (TBI) AND RELATED DISORDERS” (priority 2017, published 2021).

Key:
sigma = settings: recent basic research
[1] = tested on: generalized anxiety disorders; settings: patients with generalized anxiety disorders; versus placebo and alprazolam
noradrenaline reuptake = noradrenaline reuptake (Homo sapiens, UniProt P23975)
cholinergic receptors = settings: in vitro; last in the decreasing order H1, H2 > 5-HT2 > D2, D1 > a1 > cholinergic
[2] = molecular target: serotonin (5-HT) reuptake (Homo sapiens, UniProt P31645)
Sequence of serotonin (5-HT) reuptake (P31645 whole entry): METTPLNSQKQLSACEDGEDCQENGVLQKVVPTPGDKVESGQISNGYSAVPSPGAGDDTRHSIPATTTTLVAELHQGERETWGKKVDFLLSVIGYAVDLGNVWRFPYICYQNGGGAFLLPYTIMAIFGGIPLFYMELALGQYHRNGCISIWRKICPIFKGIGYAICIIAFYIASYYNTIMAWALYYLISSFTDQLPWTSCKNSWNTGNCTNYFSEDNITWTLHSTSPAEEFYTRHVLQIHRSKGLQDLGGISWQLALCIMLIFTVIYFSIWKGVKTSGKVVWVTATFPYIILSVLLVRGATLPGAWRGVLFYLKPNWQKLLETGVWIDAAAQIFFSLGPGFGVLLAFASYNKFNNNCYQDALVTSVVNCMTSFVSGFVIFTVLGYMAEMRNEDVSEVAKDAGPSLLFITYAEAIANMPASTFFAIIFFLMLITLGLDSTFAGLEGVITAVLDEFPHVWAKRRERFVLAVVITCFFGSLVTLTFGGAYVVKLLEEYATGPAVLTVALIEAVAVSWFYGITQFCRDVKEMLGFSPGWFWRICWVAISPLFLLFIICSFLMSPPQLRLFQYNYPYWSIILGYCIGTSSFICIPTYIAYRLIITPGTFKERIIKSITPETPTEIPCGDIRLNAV

Sequence of noradrenaline reuptake (P23975 whole entry): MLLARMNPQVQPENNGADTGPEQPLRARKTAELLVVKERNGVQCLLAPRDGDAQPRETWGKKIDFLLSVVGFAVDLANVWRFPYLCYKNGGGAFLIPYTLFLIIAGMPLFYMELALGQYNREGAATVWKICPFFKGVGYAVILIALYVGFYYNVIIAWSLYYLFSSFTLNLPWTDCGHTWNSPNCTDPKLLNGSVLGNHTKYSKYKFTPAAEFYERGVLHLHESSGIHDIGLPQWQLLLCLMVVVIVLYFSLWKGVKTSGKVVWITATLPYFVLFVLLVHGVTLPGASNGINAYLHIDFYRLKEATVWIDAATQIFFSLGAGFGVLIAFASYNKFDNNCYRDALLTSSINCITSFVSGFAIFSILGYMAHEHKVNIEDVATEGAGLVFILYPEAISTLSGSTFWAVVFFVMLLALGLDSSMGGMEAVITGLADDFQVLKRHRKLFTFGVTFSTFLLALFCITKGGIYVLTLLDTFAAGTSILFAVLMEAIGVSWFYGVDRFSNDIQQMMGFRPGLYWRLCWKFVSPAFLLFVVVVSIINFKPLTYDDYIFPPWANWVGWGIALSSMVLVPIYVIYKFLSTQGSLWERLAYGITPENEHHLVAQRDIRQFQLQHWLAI

reuptake inhibiting properties for noradrenaline (noradrenaline reuptake): without reuptake inhibiting properties
blockade of cholinergic receptors (cholinergic receptors): very weakly
reuptake inhibiting properties for serotonin (5-HT) [2]: without reuptake inhibiting properties
Structure (SMILES): Cl.Cl.OCCN1CCN(CCCN2c3ccccc3C=Cc3ccccc32)CC1 [opipramol, 4-[3-(5H-dibenz[b,f]-azepine-5-yl)-propyl]-1-piperazine-ethanol dihydrochloride]
sigma ligand strength (sigma): strong sigma ligand
anxiolytic efficacy [1]: superiority over placebo and similar efficacy to alprazolam
